Experimental data: patent US10280150B2 (FORMA TM2, Inc., priority 2014, dated 2019)
Where two headings read alike, the source gives them in different places.

Tests used:
[1] = molecular target: IDH1-R132H recombinant protein (Homo sapiens (Human), UniProt O75874, R132H); experiment: IDH1-R132H enzymatic assay (inhibition of NADPH consumption, diaphorase/resazurin readout); format: biochemical; conditions: read-out: Enzyme IDH1 R132H IC50 (Range)
Method in brief: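 Compound was preincubated 15 min at 25 °C with 30 nM IDH1-R132H or 10 nM IDH1-R132C in Tris pH 7.5 buffer with MgCl2, BSA and Triton X-100. Reaction with 2 mM α-ketoglutarate and 20 μM NADPH (solution concentrations) ran 45 min at 25 °C. Remaining NADPH was detected via diaphorase/resazurin fluorescence (ex 535/em 590 nm), and IC50 came from four-parameter fits.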

[2] = system: HCT116 isogenic IDH1-R132H mutant cells; experiment: Cellular 2-HG assay using HCT116 mutant IDH1 cells (R132H), RapidFire mass spectrometry; format: cell-based; conditions: Homo sapiens, read-out: HCT116 IDH1 R132H IC50 (Range)
Experimental: (§1) Example 106—Cellular 2-HG assay using HCT116 mutant IDH1 cells
(§2) HCT116 isogenic IDH1-R132H and IDH1-R132C mutant cells were cultured in growth media (McCoy's 5 A, 10% fetal bovine serum, 1× antibiotic-antimycotic solution and 0.3 mg/mL G418) in 5% CO2 in an incubator at 37° C. To prepare the assay, cells were trypsinized and resuspended in assay media (McCoy's 5 A with no L-glutamine, 10% fetal bovine serum, 1× antibiotic-antimycotic solution and 0.3 mg/mL G418). An aliquot of 10,000 cells/100 μL was transferred to each well of a clear 96-well tissue culture plate. The cells were incubated in 5% CO2 at 37° C. in an incubator overnight to allow for proper cell attachment. An aliquot of 50 μL of compound containing assay media were then added to each well and the assay plate was kept in 5% CO2 at 37° C. in an incubator for 24 hours. The media was then removed from each well and 150 μL of a methanol/water mixture (80/20 v/v) was added to each well. The plates were kept at −80° C. freezer overnight to allow for complete cell lysis. An aliquot of 125 μL of extracted supernatant was analyzed by RapidFire high-throughout-mass spectrometry (Agilent) to determine the cellular 2-HG level. The IC50 of a given compound was calculated by fitting the dose response curve of cellular 2-HG inhibition at a given concentration with the four parameter logistic equation.

[3] = molecular target: IDH1-R132C recombinant protein (Homo sapiens (Human), UniProt O75874, R132C); experiment: IDH1-R132C enzymatic assay (inhibition of NADPH consumption, diaphorase/resazurin readout); format: biochemical; conditions: read-out: Enzyme IDH1 R132C IC50 (Range)
Experimental: Assays were performed in a 384-well black plate. An aliquot of 250 nL of compound was incubated with 10 μL of 30 nM IDH1-R132H or 10 nM IDH1-R132C recombinant protein in assay buffer (50 mM Tris pH=7.5, 150 mM NaCl, 5 mM MgCl2, 0.1% (w/v) Bovine Serum Albumin, and 0.01% Triton X-100) in each well at 25° C. for 15 minutes. After the plate was centrifuged briefly, an aliquot of 10 μL of 2 mM α-ketoglutarate and 20 μM NADPH solution prepared in assay buffer was then added to each well and the reaction was maintained at 25° C. for 45 minutes. An aliquot of 10 μL of diaphorase solution (0.15 U/mL diaphorase and 30 µM Resazurin in assay buffer) was added to each well. The plate was maintained at 25° C. for 15 minutes and then read on a plate reader with excitation and emission wavelengths at 535 nm and 590 nm, respectively. The IC50 of a given compound was calculated by fitting the dose response curve of inhibition of NADPH consumption at a given concentration with the four parameter logistic equation.

[4] = system: HCT116 isogenic IDH1-R132C mutant cells; experiment: Cellular 2-HG assay using HCT116 mutant IDH1 cells (R132C), RapidFire mass spectrometry; format: cell-based; conditions: Homo sapiens, read-out: HCT116 IDH1 R132C IC50 (Range)
Experimental: as §1, §2

[5] = HCT-116, cellular 2-HG level, HCT116 IDH1-R132H cells, 24 hours
[6] = HCT-116, cellular 2-HG level, HCT116 IDH1-R132C cells, 24 hours

Sequence of IDH1-R132C recombinant protein (O75874 whole entry R132C): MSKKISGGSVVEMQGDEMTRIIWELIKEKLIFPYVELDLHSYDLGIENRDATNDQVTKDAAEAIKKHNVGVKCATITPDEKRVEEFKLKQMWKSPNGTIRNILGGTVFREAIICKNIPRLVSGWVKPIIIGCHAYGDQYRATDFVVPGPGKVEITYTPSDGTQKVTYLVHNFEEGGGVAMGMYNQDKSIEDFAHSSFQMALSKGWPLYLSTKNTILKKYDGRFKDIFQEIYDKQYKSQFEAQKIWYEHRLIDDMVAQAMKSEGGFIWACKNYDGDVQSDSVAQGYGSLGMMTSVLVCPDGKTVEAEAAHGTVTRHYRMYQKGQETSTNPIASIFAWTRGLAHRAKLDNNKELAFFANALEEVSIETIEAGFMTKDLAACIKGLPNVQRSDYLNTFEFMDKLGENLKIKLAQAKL
Sequence of IDH1-R132H recombinant protein (O75874 whole entry R132H): as the sequence (O75874 whole entry R132C) above, with C132H counted along it

Row | IC50 [1] | IC50 [2, 5] | IC50 [3] | IC50 [4, 6] | Compound | IC50 ([2]; HCT-116, 24 h) | IC50 ([4]; HCT-116, 24 h)
1 | < 100 nM | 1000 to 10000 nM | 1000 to 10000 nM | 1000 to 10000 nM | Cc1oncc1-c1ccnc(N[C@@H](C)c2cc3cc(Cl)ccc3[nH]c2=O)n1 [Compound I-58, (S)-6-Chloro-3-(1-((4-(5-methylisoxazol-4-yl)pyrimidin-2-yl)amino)ethyl)quinolin-2(1H)-one] | – | –
2 | < 100 nM | < 100 nM | 100 to 1000 nM | 100 to 1000 nM | C[C@H](Nc1nccc(-c2cncn2CC(F)(F)F)n1)c1cc2cc(Cl)ccc2[nH]c1=O [Compound I-60, (S)-6-Chloro-3-(1-((4-(1-(2,2,2-trifluoroethyl)-1H-imidazol-5-yl)pyrimidin-2-yl)amino)ethyl)quinolin-2(1H)-one] | – | –
3 | < 100 nM | 100 to 1000 nM | < 100 nM | 100 to 1000 nM | C[C@H](Nc1nccc(-c2cncn2CC2CC2)n1)c1cc2cc(Cl)ccc2[nH]c1=O [Compound I-61] | – | –
4 | < 100 nM | 100 to 1000 nM | 100 to 1000 nM | 100 to 1000 nM | CC(C)n1cncc1-c1ccnc(N[C@@H](C)c2cc3cc(Cl)ccc3[nH]c2=O)n1 [Compound I-64, (S)-6-chloro-3-(1-((4-(1-isopropyl-1H-imidazol-5-yl)pyrimidin-2-yl)amino)ethyl) quinolin-2(1H)-one] | – | –
5 | 100 to 1000 nM | 100 to 1000 nM | 1000 to 10000 nM | 100 to 1000 nM | C[C@H](Nc1nccc(-c2cnnn2C)n1)c1cc2cc(Cl)ccc2[nH]c1=O [Compound I-66, (S)-6-chloro-3-(1-((4-(1-methyl-1H-1,2,3-triazol-5-yl)pyrimidin-2-yl)amino)ethyl)quinolin-2(1H)-one] | – | –
6 | < 100 nM | < 100 nM | < 100 nM | 100 to 1000 nM | C[C@H](Nc1nccc(-c2cncn2Cc2ccccc2)n1)c1cc2cc(Cl)ccc2[nH]c1=O [Compound I-68] | – | –
7 | < 100 nM | < 100 nM | 100 to 1000 nM | < 100 nM | C[C@H](Nc1nccc(-c2cncn2C)n1)c1cc2cc(Cl)ccc2[nH]c1=O [Compound I-71] | – | –
8 | < 100 nM | 100 to 1000 nM | 100 to 1000 nM | 1000 to 10000 nM | CC(C)n1nccc1-c1ccnc(N[C@@H](C)c2cc3cc(Cl)ccc3[nH]c2=O)n1 [Compound I-75] | – | –
9 | 100 to 1000 nM | 100 to 1000 nM | 100 to 1000 nM | 100 to 1000 nM | CC(C)Cn1cncc1-c1ccnc(N[C@@H](C)c2cc3cc(Cl)ccc3[nH]c2=O)n1 [Compound I-85] | – | –
10 | 100 to 1000 nM | 100 to 1000 nM | 1000 to 10000 nM | 1000 to 10000 nM | C[C@H](Nc1nccc(-c2ccn[nH]2)n1)c1cc2cc(Cl)ccc2[nH]c1=O [Compound I-87] | – | –
11 | < 100 nM | 100 to 1000 nM | 100 to 1000 nM | 1000 to 10000 nM | C[C@H](Nc1nccc(-c2cnsc2)n1)c1cc2cc(Cl)ccc2[nH]c1=O [Compound I-88] | – | –
12 | 100 to 1000 nM | < 100 nM | 100 to 1000 nM | 1000 to 10000 nM | C[C@H](Nc1nccc(-c2cccnc2)n1)c1cc2cc(Cl)ccc2[nH]c1=O [Compound I-94] | – | –
13 | 100 to 1000 nM | 100 to 1000 nM | 100 to 1000 nM | 1000 to 10000 nM | C[C@H](Nc1nccc(-c2ccncc2)n1)c1cc2cc(Cl)ccc2[nH]c1=O [Compound I-95] | – | –
14 | < 100 nM | < 100 nM | 100 to 1000 nM | 100 to 1000 nM | Cc1cnccc1-c1ccnc(N[C@@H](C)c2cc3cc(Cl)ccc3[nH]c2=O)n1 [Compound I-96] | – | –

Further lines, the compound ahead of its results:

Row | Compound | IC50 [1] | IC50 [2, 5] | IC50 [3] | IC50 [4, 6] | IC50 ([2]; HCT-116, 24 h) | IC50 ([4]; HCT-116, 24 h)
15 | CC(=O)Nc1ccnc(N[C@@H](C)c2cc3cc(Cl)ccc3[nH]c2=O)n1 [Compound I-25, (S)—N-(2-((1-(6-Chloro-2-oxo-1,2-dihydroquinolin-3-yl)ethyl)amino)pyrimidin-4-yl)acetamide] | < 100 nM | < 100 nM | < 100 nM | < 100 nM | – | –
16 | C[C@H](Nc1nccc(NC(=O)C2CC2)n1)c1cc2cc(Cl)ccc2[nH]c1=O [Compound I-29] | < 100 nM | 100 to 1000 nM | < 100 nM | 100 to 1000 nM | – | –
17 | CCC(=O)Nc1ccnc(N[C@@H](C)c2cc3cc(Cl)ccc3[nH]c2=O)n1 [Compound I-33] | < 100 nM | < 100 nM | < 100 nM | 100 to 1000 nM | – | –
18 | COc1nc(N[C@@H](C)c2cc3cc(Cl)ccc3[nH]c2=O)ncc1C#N [Compound I-36, (S)-2-((1-(6-Chloro-2-oxo-1,2-dihydroquinolin-3-yl)ethyl)amino)-4-methoxypyrimidine-5-carbonitrile] | < 100 nM | – | 100 to 1000 nM | – | < 100 nM | 100 to 1000 nM
19 | C[C@H](Nc1nccc(N2CCOC2=O)n1)c1cc2cc(Cl)ccc2[nH]c1=O [Compound I-44, (S)-3-(2-((1-(6-Chloro-2-oxo-1,2-dihydroquinolin-3-yl)ethyl)amino)pyrimidin-4-yl)oxazolidin-2-one] | < 100 nM | < 100 nM | < 100 nM | 100 to 1000 nM | – | –
20 | O=C1OCCN1c1ccnc(NCc2cc3cc(Cl)ccc3[nH]c2=O)n1 [Compound I-47] | 100 to 1000 nM | 100 to 1000 nM | 100 to 1000 nM | 1000 to 10000 nM | – | –
21 | Cc1cccn1-c1ccnc(N[C@@H](C)c2cc3cc(Cl)ccc3[nH]c2=O)n1 [Compound I-51, (S)-6-Chloro-3-(1-((4-(2-methyl-1H-pyrrol-1-yl)pyrimidin-2-yl)amino)ethyl) quinolin-2(1H)-one] | < 100 nM | 100 to 1000 nM | 100 to 1000 nM | 100 to 1000 nM | – | –
22 | C[C@H](Nc1nccc(-n2ccnc2)n1)c1cc2cc(Cl)ccc2[nH]c1=O [Compound I-54] | 100 to 1000 nM | 1000 to 10000 nM | 1000 to 10000 nM | 1000 to 10000 nM | – | –
23 | C[C@H](Nc1nccc(-n2cnc3c2CCC3)n1)c1cc2cc(Cl)ccc2[nH]c1=O [Compound I-55] | 100 to 1000 nM | 100 to 1000 nM | 100 to 1000 nM | 100 to 1000 nM | – | –
24 | Cc1nnnn1-c1ccnc(N[C@@H](C)c2cc3cc(Cl)ccc3[nH]c2=O)n1 [Compound I-59, (S)-6-chloro-3-(1-((4-(5-methyl-1H-tetrazol-1-yl)pyrimidin-2-yl)amino)ethyl)quinolin-2(1H)-one] | < 100 nM | 100 to 1000 nM | 100 to 1000 nM | 100 to 1000 nM | – | –
25 | C[C@H](Nc1nccc(-c2cnc3ccccn23)n1)c1cc2cc(Cl)ccc2[nH]c1=O [Compound I-63, (S)-6-chloro-3-(1-((4-(imidazo[1,2-a]pyridin-3-yl)pyrimidin-2-yl)amino)ethyl)quinolin-2(1H)-one] | < 100 nM | 100 to 1000 nM | < 100 nM | 1000 to 10000 nM | – | –
26 | C[C@H](Nc1nccc(-n2cccc2C(F)(F)F)n1)c1cc2cc(Cl)ccc2[nH]c1=O [Compound I-65, (S)-6-Chloro-3-(1-((4-(2-(triflouromethyl)-1H-pyrrol-1-yl)pyrimidin-2-yl)amino)ethyl) quinolin-2(1H)-one] | 100 to 1000 nM | 100 to 1000 nM | 1000 to 10000 nM | 1000 to 10000 nM | – | –
27 | Cc1ncccc1-c1ccnc(N[C@@H](C)c2cc3cc(Cl)ccc3[nH]c2=O)n1 [Compound I-90] | 100 to 1000 nM | 1000 to 10000 nM | 1000 to 10000 nM | 1000 to 10000 nM | – | –
28 | C[C@H](Nc1nccc(-c2cncc3ccccc23)n1)c1cc2cc(Cl)ccc2[nH]c1=O [Compound I-92] | 100 to 1000 nM | 100 to 1000 nM | 100 to 1000 nM | 1000 to 10000 nM | – | –
